The structures appear in SMILES notation. Structures can show the parent of a compound that is named as a salt.

Tested on in one data set: not given
Experiment: not given
Conditions: not given
`CC(O)c1cc2c(=O)n(NS(C)(=O)=O)c(=O)[nH]c2cc1C(F)(F)F` (racemic) [Example 2, N-[6-(1-Hydroxy-ethyl)-2,4-dioxo-7-trifluoromethyl-1,4-dihydro-2H-quinazolin-3-yl]-methanesulfonamide] registered a melting point of 263 to 268 °C.
Compound `CS(=O)(=O)Nn1c(=O)[nH]c2cc(C(F)(F)F)c(-c3cccc(C#N)c3)cc2c1=O` [Example 34, N-[6-(3-Cyano-phenyl)-2,4-dioxo-7-trifluoromethyl-1,4-dihydro-2H-quinazolin-3-yl]-methanesulfonamide] displayed a melting point of 291 to 292 °C.
`CC(C)OC(C)c1cc2c(=O)n(NS(C)(=O)=O)c(=O)[nH]c2cc1C(F)(F)F` (centres unmarked) [Example 5, N-[6-(1-Isopropoxy-ethyl)-2,4-dioxo-7-trifluoromethyl-1,4-dihydro-2H-quinazolin-3-yl]-methanesulfonamide] came in with a melting point of 110 to 115 °C.
Take `CC(C)C(O)c1cc2c(=O)n(NS(C)(=O)=O)c(=O)[nH]c2cc1C(F)(F)F` (centres unmarked) [Example 22, N-[6-(1-Hydroxy-2-methyl-propyl)-2,4-dioxo-7-trifluoromethyl-1,4-dihydro-2H-quinazolin-3-yl]methanesulfonamide]: the melting point was in the range of 232 to 235 °C.
Compound `CCC(=O)c1cc2c(=O)n(NS(C)(=O)=O)c(=O)[nH]c2cc1C(F)(F)F` [Example 6, N-(2,4-Dioxo-6-propionyl-7-trifluoromethyl-1,4-dihydro-2H-quinazolin-3-yl)-methanesulfonamide] gave a melting point of 234 to 236 °C.
The compound `CS(=O)(=O)Nn1c(=O)[nH]c2cc(C(F)(F)F)c(-c3cccc(CN)c3)cc2c1=O` (as salt: hydrochloride) [Example 38, N-[6-(3-Aminomethyl-phenyl)-2,4-dioxo-7-trifluoromethyl-1,4-dihydro-2H-quinazolin-3-yl]methanesulfonamide] came in with a melting point of 282 to 284 °C.
The same measure, in the same setting: to `CCCCOC(C)c1cc2c(=O)n(NS(C)(=O)=O)c(=O)[nH]c2cc1C(F)(F)F` (centres unmarked) [Example 15, N-[6-(1-Butoxy-ethyl)-2,4-dioxo-7-trifluoromethyl-1,4-dihydro-2H-quinazolin-3-yl]-methanesulfonamide] belongs 84 to 90 °C; to `CCCC(O)c1cc2c(=O)n(NS(C)(=O)=O)c(=O)[nH]c2cc1C(F)(F)F` (centres unmarked) [Example 11, N-[6-(1-Hydroxy-butyl)-2,4-dioxo-7-trifluoromethyl-1,4-dihydro-2H-quinazolin-3-yl]-methanesulfonamide], 223 to 226 °C; to `CS(=O)(=O)Nn1c(=O)[nH]c2cc(C(F)(F)F)c(-c3ccc(C#N)cc3)cc2c1=O` [Example 35, N-[6-(4-Cyano-phenyl)-2,4-dioxo-7-trifluoromethyl-1,4-dihydro-2H-quinazolin-3-yl]-methanesulfonamide], 145 to 147 °C.
In turn, `CS(=O)(=O)Nn1c(=O)[nH]c2cc(C(F)(F)F)c(C(=O)C(F)(F)F)cc2c1=O` [Example 20, N-[2,4-Dioxo-6-(2,2,2,-trifluoro-acetyl)-7-trifluoromethyl-1,4-dihydro-2H-quinazolin-3-yl]-methanesulfonamide] yielded a melting point of 262 to 265 °C.
Take `CCOC(C)c1cc2c(=O)n(NS(C)(=O)=O)c(=O)[nH]c2cc1C(F)(F)F` (centres unmarked) [Example 4, N-[6-(1-Ethoxy-ethyl)-2,4-dioxo-7-trifluoromethyl-1,4-dihydro-2H-quinazolin-3-yl]-methanesulfonamide]: the melting point is 105 to 112 °C.
`CCCC(=O)c1cc2c(=O)n(NS(C)(=O)=O)c(=O)[nH]c2cc1C(F)(F)F` [Example 10, N-(6-Butyryl-2,4-dioxo-7-trifluoromethyl-1,4-dihydro-2H-quinazolin-3-yl)-methanesulfonamide] yielded a melting point of 236 to 239 °C.

For the next data set, the target named is AMPA-Receptor. Kind of data set: [3H] CNQX binding test (AMPA-receptor binding). The following applies: brain membranes, 5 nM [3H]-CNQX, 4° C., 40 min. Here is the method: CNQX binding test (Honoré et al. Biochem. Pharmacol. 1989, 38: 3207-3212). This test is performed as follows: • Brain membranes: The animals are decapitated, the brain removed and homogenized in 10 volumes of ice-cold 10% sucrose with a glass/Teflon homogenizer at positions 5 for 30 sec. The membranes are centrifuged at 1000×g for 10 min, and the supernatant centrifuged at 20,000×g for 15 min. The resulting pellet is resuspended in 10 volumes of cold water with a tissue homogenizer (Brinkman Polytron) at position 5 for 15 sec and the suspension centrifuged at 8000×g for 10 min. The supernatant including the buffy layer is centrifuged at 40,000×g for 20 min, the pellet resuspended in 5 volumes of water and the suspension frozen (20-30 min in dry ice/MeOH) and thawed (water-bath at 37° C.) twice. The suspension is centrifuged at 40,000×g for 20 min, the pellet resuspended in 50 mM HEPES/KOH, pH 7.5, and centrifuged at 40,000×g for 10 min. […]
Two hundred μL of the scintillation fluid Microscint 20 (Packard) are added and the radioactivity is counted in a Packard Topcount scintillation counter at an efficiency of 40-45%. […]
For the compound `CCOC(C)c1cc2c(=O)n(NS(C)(=O)=O)c(=O)[nH]c2cc1C(F)(F)F` (centres unmarked) [Example 4, N-[6-(1-Ethoxy-ethyl)-2,4-dioxo-7-trifluoromethyl-1,4-dihydro-2H-quinazolin-3-yl]-methanesulfonamide], the IC50 is < 1000 nM.

A further data set deals with T1, rGluR3 AMPA receptor (Rattus norvegicus, UniProt P19492).
T1 construct: expressed in transfected cells; host or cells: Xenopus laevis oocytes injected with cRNA
T1 sequence (P19492 23-888): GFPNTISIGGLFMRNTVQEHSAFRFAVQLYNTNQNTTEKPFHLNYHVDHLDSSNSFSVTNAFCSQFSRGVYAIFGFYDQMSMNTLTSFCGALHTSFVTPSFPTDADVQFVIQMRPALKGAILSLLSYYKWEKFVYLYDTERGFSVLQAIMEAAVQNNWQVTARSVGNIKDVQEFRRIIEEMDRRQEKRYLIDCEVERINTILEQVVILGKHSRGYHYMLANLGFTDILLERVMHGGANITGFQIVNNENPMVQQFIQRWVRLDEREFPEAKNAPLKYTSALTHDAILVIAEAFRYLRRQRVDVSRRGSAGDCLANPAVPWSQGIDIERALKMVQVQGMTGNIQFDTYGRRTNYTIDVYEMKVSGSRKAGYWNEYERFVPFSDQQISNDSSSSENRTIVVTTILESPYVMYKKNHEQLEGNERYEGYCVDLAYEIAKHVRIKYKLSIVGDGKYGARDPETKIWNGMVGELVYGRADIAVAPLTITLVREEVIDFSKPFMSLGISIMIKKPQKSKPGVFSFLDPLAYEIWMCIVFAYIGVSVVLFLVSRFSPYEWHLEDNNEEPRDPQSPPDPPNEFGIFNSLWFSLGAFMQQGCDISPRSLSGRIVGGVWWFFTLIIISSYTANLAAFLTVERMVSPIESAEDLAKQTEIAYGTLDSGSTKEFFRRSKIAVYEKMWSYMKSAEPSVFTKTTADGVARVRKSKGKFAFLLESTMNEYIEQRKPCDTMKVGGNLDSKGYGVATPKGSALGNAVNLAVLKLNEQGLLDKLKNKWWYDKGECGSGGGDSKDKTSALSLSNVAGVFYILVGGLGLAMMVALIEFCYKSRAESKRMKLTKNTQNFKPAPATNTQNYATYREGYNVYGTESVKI
As to the kind of experiment: Functional test for AMPA-receptor activity, two electrode voltage clamp in Xenopus laevis oocytes. The class given is cell-based. The following applies: oocytes expressing rat GluR3-(flop) AMPA receptor; read-out: IC50-value (antagonist). The protocol:
For the determination of functional agonism or antagonism at the AMPA-receptor, experiments can be performed on Xenopus oocytes as previously described in detail (Urwyler et al., Mol. Pharmacol. 2001, 60, 963-971). Briefly, two electrode voltage clamp recordings are performed from Xenopus laevis oocytes expressing GluR3 AMPA receptors. Plasmids for the rat GluR3-(flop) (Hollmann et al., Science 1991, 252, 851-853) are linearized and transcribed into capped cRNA using an in vitro RNA synthesis kit (Ambion, Texas) with T7 Polymerase. Stock solutions are kept in 70% EtOH. Before use, cRNA is precipitated and resuspended in DEPC-treated water. Oocytes are injected with RNA coding the rat GluR3-(flop) AMPA receptor. For recordings, oocytes are placed in a perfusion chamber with continuous gravity flow of frog Ringer's solution. For recordings from oocytes expressing rGluR3-(flop) receptors frog, Ringer's solution containing Mg^2+ (81 mM NaCl; 2.5 mM KCl; 1 mM CaCl2; 1 mM MgCl2, 2.5 mM NaHCO3, 5 mM HEPES, pH 7.4) is used.
Test compounds are washed in with gravity.
Background: Two-electrode voltage clamp holds a large cell at a set potential and records current.
On to `CCOC(C)c1cc2c(=O)n(NS(C)(=O)=O)c(=O)[nH]c2cc1C(F)(F)F` (centres unmarked) [Example 4, N-[6-(1-Ethoxy-ethyl)-2,4-dioxo-7-trifluoromethyl-1,4-dihydro-2H-quinazolin-3-yl]-methanesulfonamide], for which the IC50 was < 3000 nM.

One may read the melting point as the temperature of the solid-liquid transition. By IC50 is commonly meant the concentration needed to halve the response being measured.

These data come from US8513268B2, “1H-quinazoline-2,4-diones processes for their production, pharmaceutical compositions, and treatment for epilepsy” (Novartis AG, priority 2005, dated 2013).
